In patent US10059699B2, “Tetrahydroquinoline derivatives as bromodomain inhibitors” (GlaxoSmithKline Intellectual Property (No.2) Limited, priority 2014, dated 2018):
Like-named read-outs stand apart in the source and are kept apart here.

What was measured:
[1] = system: multiple myeloma cells (OPM-2); assay: Cancer cell line proliferation assay, OPM-2; assay type: cell-based; conditions: Homo sapiens, OPM-2 cells, 72 hours, CellTiter Glo, n = 2
Procedure: (§1) The impact of the compound of Examples 7 and 14 on cancer cell proliferation was determined using patient derived NUT midline carcinoma cells (11060), multiple myeloma cells (OPM-2, DSMZ) and biphenotypic B myelomonocytic leukaemia cells (MV-4-11, ATCC) in a 72 hour proliferation assay. 11060 and OPM-2 cells were maintained in RPMI 1640 medium (Invitrogen) supplemented with 10% HI-FBS (Heat-Inactivated Fetal Bovine Serum, Hyclone) and 2 mM L-glutamine (Invitrogen) at 37° C. and an atmosphere of 5% CO2. MV-4-11 cells were maintained in IMDM media supplemented with 10% HI-FCS, 2 mM L-glutamine, 1× Non-essential amino acids (Invitrogen) and 1× sodium pyruvate (1 mM) (Invitrogen). Cells were diluted to 1.11×10^5 cells/mL and 90 μL/well plated into black sided, clear bottomed 96 well tissue culture plates (Corning), using growth media supplemented with penicillin/streptomycin (Invitrogen). Cells were incubated overnight at 37° C. and in one plate, ATP levels were measured using the CellTiter Glo assay (Promega) according to the manufacturer's instructions, to give a baseline reading (t=0). 3-fold serial dilutions of compounds ranging from 6 mM to 0.3 μM were prepared in 100% DMSO. The DMSO dilution series was diluted 20-fold in growth media before 10 μl of the resulting dilutions were added to the appropriate wells of the remaining cell plates. The final compound concentrations in the wells ranged from 30 μM to 1.5 nM in 0.5% DMSO. Cells were incubated with compounds for 72 hours before assaying for ATP content using CellTiter Glo (t=72). CellTiter Glo data from each t=72 time point was normalised to the relevant t=0 time point data, and expressed as % t=0.

[2] = system: biphenotypic B myelomonocytic leukaemia cells (MV-4-11); assay: Cancer cell line proliferation assay, MV-4-11; assay type: cell-based; conditions: Homo sapiens, MV4-11, MV-4-11 cells, 72 hours, CellTiter Glo, n = 3
Procedure: as §1

[3] = system: NUT midline carcinoma cells (11060); assay: Cancer cell line proliferation assay, 11060; assay type: cell-based; conditions: 11060 cells, 72 hours, CellTiter Glo, n = 3
Procedure: as §1

[4] = system: Bromodomains BRD2, BRD3, BRD4 and BRDT; assay: Fluoroligand affinity for mutated vs non-mutated bromodomain; set-up: species or system Human; conditions: single residue mutations in the acetyl lysine binding pocket
Procedure: The binding of the compounds of formulae (I)-(XVI) to Bromodomains BRD2, BRD3, BRD4 and BRDT was assessed using mutated proteins to detect differential binding to either Binding Domain 1 (BD1) or Binding Domain 2 (BD2) on the bromodomain. These single residue mutations in the acetyl lysine binding pocket greatly lower the affinity of the fluoroligand (Reference Compound X) for the mutated domain (>1000 fold selective for the non-mutated domain). Therefore in the final assay conditions, binding of the fluoroligand to the mutated domain cannot be detected and subsequently the assay is suitable to determine the binding of compounds to the single non-mutated bromodomain. […]

[5] = full curve fit, read-out: Cellular Proliferation: pIC50 (converted)
[6] = read-out: Cellular Proliferation: gpIC50 (converted)

IC50 [1, 5] [nM]	IC50 [1, 6] [nM]	IC50 [2, 5] [nM]	IC50 [2, 6] [nM]	IC50 [3, 5] [nM]	IC50 [3, 6] [nM]	Structure (SMILES)	selectivity for the non-mutated domain over the mutated domain [4] [fold]
100	50.1	200	158	631	398	CC(=O)N1c2ccc(C(N)=O)cc2[C@H](Nc2ncc(Cl)cn2)[C@@H](C)[C@@H]1C [Example 7, (2S,3R,4R)-1-acetyl-4-((5-chloropyrimidin-2-yl)amino)-2,3-dimethyl-1,2,3,4-tetrahydroquinoline-6-carboxamide]	–
–	–	–	–	–	–	COc1ccc2c(c1)C(c1ccc(Cl)cc1)=N[C@@H](CC(=O)NCCCCCNC(=O)CCCCCC1(C)/C(=C/C=C/C=C/C3=[N+](CCCCS(=O)(=O)O)c4ccc(S(=O)(=O)O)cc4C3(C)C)N(CCCCS(=O)(=O)[O-])c3ccc(S(=O)(=O)O)cc31)c1nnc(C)n1-2 (stereo partly shown) [Reference Compound X]	> 1000
